Values joined by “and” are separate entries in the source; they are usually repeats but may differ in a detail not shown here. Equal entries are not always repeated. Where two headings read alike, the source gives them in different places.
Legend:
[1] = target: influenza A virus nucleoprotein (ANP) (Influenza A virus, UniProt P15682); conditions: ITC; protein ANP
influenza B virus Lee40 [2] = conditions: A549 cells, MOI=1, 12 ng naproxen per dish, FIG. 8B
[3] = system: influenza A virus WSN A/WSN/1933 (H1N1); conditions: A549 cells, MOI=0.1, 12 ng naproxen per dish, FIG. 8A
binding of ANP to CRM1 = binding of ANP to CRM1 (Influenza A virus, UniProt P15682)
[4] = target: influenza B virus nucleoprotein (BNP) (Influenza B virus, UniProt P04665); conditions: ITC; protein BNP
[5] = system: influenza A virus WSN A/WSN/1933 (H1N1); set-up: species or system BALB/c mice; conditions: mouse, in vivo
binding of BNP to CRM1 = binding of BNP to CRM1 (Influenza B virus, UniProt P04665)
influenza B virus Lee40 [6] = system: influenza B virus Lee40; set-up: species or system BALB/c mice; conditions: mouse, in vivo

influenza B virus nucleoprotein (BNP), sequence (P04665 whole entry): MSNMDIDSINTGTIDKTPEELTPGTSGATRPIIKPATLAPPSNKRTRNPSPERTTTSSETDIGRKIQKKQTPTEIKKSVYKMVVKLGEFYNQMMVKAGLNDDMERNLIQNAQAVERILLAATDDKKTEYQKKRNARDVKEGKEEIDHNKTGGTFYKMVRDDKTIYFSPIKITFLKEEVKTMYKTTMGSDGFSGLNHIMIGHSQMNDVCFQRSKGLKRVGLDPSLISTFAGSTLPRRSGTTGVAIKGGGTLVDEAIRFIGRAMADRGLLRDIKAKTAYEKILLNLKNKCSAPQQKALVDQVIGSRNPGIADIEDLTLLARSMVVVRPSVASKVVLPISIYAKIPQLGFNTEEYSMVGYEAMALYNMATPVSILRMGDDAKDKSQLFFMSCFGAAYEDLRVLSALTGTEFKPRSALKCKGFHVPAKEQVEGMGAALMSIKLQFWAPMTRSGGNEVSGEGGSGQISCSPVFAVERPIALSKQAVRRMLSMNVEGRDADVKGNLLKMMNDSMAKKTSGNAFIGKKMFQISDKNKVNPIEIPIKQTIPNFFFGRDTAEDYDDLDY
influenza A virus nucleoprotein (ANP), sequence (P15682 whole entry): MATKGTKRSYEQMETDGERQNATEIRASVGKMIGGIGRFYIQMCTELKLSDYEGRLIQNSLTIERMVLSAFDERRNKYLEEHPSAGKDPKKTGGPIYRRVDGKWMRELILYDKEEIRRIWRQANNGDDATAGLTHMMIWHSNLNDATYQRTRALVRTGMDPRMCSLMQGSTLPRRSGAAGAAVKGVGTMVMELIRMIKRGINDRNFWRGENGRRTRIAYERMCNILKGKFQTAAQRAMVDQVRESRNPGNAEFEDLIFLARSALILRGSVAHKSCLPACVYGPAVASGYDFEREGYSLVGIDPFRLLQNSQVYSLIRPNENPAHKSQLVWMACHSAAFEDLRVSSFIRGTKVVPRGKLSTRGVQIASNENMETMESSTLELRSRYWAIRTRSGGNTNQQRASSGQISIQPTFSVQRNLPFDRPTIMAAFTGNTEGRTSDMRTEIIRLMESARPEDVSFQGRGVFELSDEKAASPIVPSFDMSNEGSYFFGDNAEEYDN
binding of BNP to CRM1, sequence (P04665 whole entry): as the sequence (P04665 whole entry) above
binding of ANP to CRM1, sequence (P15682 whole entry): as the sequence (P15682 whole entry) above

Row | Compound | n (stoichiometry) [1] | ΔH [1] | ΔS [1] | virus titer versus untreated cells (influenza B virus Lee40 [2]) | virus titer versus untreated cells [3] | binding of ANP to CRM1 (binding of ANP to CRM1) | n (stoichiometry) [4] | ΔH [4] | ΔS [4] | body weight course after infection [5] | lung injuries (macroscopical lesions) [5] | viral load of the lung, treatment effect [5] | binding of BNP to CRM1 (binding of BNP to CRM1) | body weight course after infection (influenza B virus Lee40 [6]) | lung injuries (macroscopical lesions) (influenza B virus Lee40 [6]) | viral load of the lung, treatment effect (influenza B virus Lee40 [6]) | survival rate (influenza B virus Lee40 [6]; ip) | lung index (lung mass/body weight) [5] | survival rate [5] | survival rate (influenza B virus Lee40 [6])
1 | COc1ccc2cc(C(C)C(=O)O)ccc2c1 (stereo not drawn) [naproxen, (+) α-methyl-6-methoxy-2-naphthaleneacetic acid] | 1.23 | -1.33 kcal/mol | 64.76 J/mol · K | significant decrease in virus titer | significant decrease in virus titer | did not bind to CRM1 | 0.93 | -0.325 kcal/mol | 138.40 J/mol · K | slowly recovered | lung injuries were milder | better | did not bind to CRM1 | slowly recovered | lung injuries were milder | better | 75% and 100% |  |  | 
2 | CCOC(=O)C1=C[C@@H](OC(CC)CC)[C@H](NC(C)=O)[C@@H](N)C1 [oseltamivir] |  |  |  |  |  |  |  |  |  | slowly recovered | lung injuries were milder | better |  | slowly recovered |  |  |  | lung indexes were lower | 100% | 37.5%
